Measurements as given in patent US9051342B2 (priority 2004, dated 2015).

SMILES	melting point
O=C(O)c1cccc(-c2ncn(-c3cc(C(F)(F)F)cc(C(F)(F)F)c3)n2)c1 [Compound 20, 3-[1-(3,5-Bis-trifluoromethyl-phenyl)-1H-[1,2,4]triazol-3-yl]-benzoic acid]	271 to 273 °C
O=C(O)c1cccc(-c2ccn(-c3ccccc3F)n2)c1 [Compound 86, 3-[1-(2-Fluoro-phenyl)-1H-pyrazol-3-yl]-benzoic acid]	157 to 158 °C
O=C(O)c1cccc(-n2cc(-c3ccc(O)cc3)cn2)c1 [Compound 100, 3-[4-(4-Hydroxy-phenyl)-pyrazol-1-yl]-benzoic acid]	282 to 284 °C
CC(C)c1ccc(-c2ccn(-c3cccc(C(=O)O)c3)c2)cc1 [Compound 287]	244 to 245 °C
COc1cccc(-c2ccn(-c3cccc(C(=O)O)c3)n2)c1 [Compound 220, 3-[3-(3-Methoxy-phenyl)-pyrazol-1-yl]-benzoic acid]	179 to 180 °C
O=C(O)c1cccc(-c2ccn(-c3ccc(O)cc3)n2)c1 [Compound 74, 3-[1-(4-Hydroxy-phenyl)-1H-pyrazol-3-yl]-benzoic acid]	228 to 230 °C
O=C(O)c1cccc(-c2ccn(-c3ccc4c(c3)OCO4)n2)c1 [Compound 87, 3-(1-Benzo[1,3]dioxol-5-yl-1H-pyrazol-3-yl)-benzoic acid]	210 to 215 °C
O=C(O)c1cccc(-c2ccn(-c3ccc(F)c(F)c3)n2)c1 [Compound 68, 3-[1-(3,4-Difluoro-phenyl)-1H-pyrazol-3-yl]-benzoic acid]	240 to 244 °C
N#Cc1cccc(-c2ccn(-c3ccc(C(F)(F)F)cc3)n2)c1 [Compound 62, 3-[1-(4-Trifluoromethyl-phenyl)-1H-pyrazol-3-yl]-benzonitrile]	70 to 74 °C
O=C(O)c1cccc(-c2ccn(-c3ccc(OC(F)F)cc3)n2)c1 [Compound 124, 3-[1-(4-Difluoromethoxy-phenyl)-1H-pyrazol-3-yl]-benzoic acid]	182 to 183 °C
O=C(O)c1ccc(-c2ccn(-c3cc(F)ccc3F)c2)cc1 [Compound 245, 4-[1-(2,5-Difluoro-phenyl)-1H-pyrrol-3-yl]-benzoic acid]	215 to 218 °C
O=C(O)c1cccc(-c2ccn(-c3ccc(C(F)(F)F)cc3)n2)c1 [Compound 67, 3-[1-(4-Trifluoromethyl-phenyl)-1H-pyrazol-3-yl]-benzoic acid]	225 to 227 °C
CC(C)c1ccc(-n2ccc(-c3cccc(C(=O)O)c3)c2)cc1 [Compound 6, 3-[1-(4-Isopropyl-phenyl)-1H-pyrrol-3-yl]-benzoic acid]	210 to 215 °C
CCc1ccccc1-n1cnc(-c2cccc(C(=O)O)c2)n1 [Compound 21, 3-[1-(2-Ethyl-phenyl)-1H-[1,2,4]triazol-3-yl]-benzoic acid]	176 to 178 °C
CC(C)c1ccc(-c2nn(-c3cccc(C(=O)O)c3)c(=S)o2)cc1 [Compound 283, 3-[5-(4-Isopropyl-phenyl)-2-thioxo-[1,3,4]oxadiazol-3-yl]-benzoic acid]	215 to 217 °C
COc1ccc(-c2cnn(-c3cccc(C(=O)O)c3)c2)cc1 [Compound 47, 3-[4-(4-Methoxy-phenyl)-pyrazol-1-yl]-benzoic acid]	238 to 239 °C
Cc1ccccc1-n1nc(-c2cccc(C(=O)O)c2)[nH]c1=O [Compound 41, 3-(5-Oxo-1-o-tolyl-4,5-dihydro-1H-[1,2,4]triazol-3-yl)-benzoic acid]	> 310 °C
O=C(O)c1ccc(-c2ccn(-c3cc(F)cc(F)c3)c2)cc1 [Compound 153, 4-[1-(3,5-Difluoro-phenyl)-1H-pyrrol-3-yl]-benzoic acid]	243 to 245 °C
O=C(O)c1ccc(-c2ccn(-c3ccc(OC(F)(F)F)cc3)c2)cc1 [Compound 131, 4-[1-(4-Trifluoromethoxy-phenyl)-1H-pyrrol-3-yl]-benzoic acid]	318 to 320 °C
COc1cccc(-n2cnc(-c3ccc(C(=O)O)cc3)n2)c1	203 to 205 °C
O=C(O)c1cccc(-c2ncn(-c3cccc(Br)c3)n2)c1 [Compound 35, 3-[1-(3-Bromo-phenyl)-1H-[1,2,4]triazol-3-yl]-benzoic acid]	253 to 255 °C
Cc1ccc(-n2cc(-c3ccc(C(=O)O)cc3)cn2)cc1C [Compound 238, 4-[1-(3,4-Dimethyl-phenyl)-1H-pyrazol-4-yl]-benzoic acid]	254 to 256 °C
O=C(O)c1cccc(-c2ncn(-c3ccc(OC(F)(F)F)cc3)n2)c1 [Compound 19, 3-[1-(4-Trifluoromethoxy-phenyl)-1H-[1,2,4]triazol-3-yl]-benzoic acid]	219 to 221 °C
O=C(O)c1cccc(-n2cc(-c3cnc4ccccc4n3)cn2)c1 [Compound 122, 3-(4-Quinoxalin-2-yl-pyrazol-1-yl)-benzoic acid]	325 to 326 °C
O=C(O)c1cccc(-n2cc(-c3ccc(OC(F)F)cc3)cn2)c1 [Compound 107, 3-[4-(4-Difluoromethoxy-phenyl)-pyrazol-1-yl]-benzoic acid]	118 to 120 °C

Results, then the molecule that gave them:

melting point	SMILES
225 to 227 °C	O=C(O)c1cccc(-n2ccc(-c3ccc(C(F)(F)F)cc3)n2)c1 [Compound 94]
302 to 303 °C	Cc1ccc(-c2cn(-c3ccc(C(=O)O)cc3)nn2)cc1 [Compound 201, 4-(4-p-Tolyl-[1,2,3]triazol-1-yl)-benzoic acid]
225 to 228 °C	CC(C)c1ccc(-c2ccc(-n3cnc(-c4cccc(C(=O)O)c4)n3)cc2)cc1 [Compound 28, 3-[1-(4′-Isopropyl-biphenyl-4-yl)-1H-[1,2,4]triazol-3-yl]-benzoic acid]
209 to 211 °C	O=C(O)c1ccc(-c2ccn(-c3cccc(C(F)(F)F)c3)c2)cc1 [Compound 128, 4-[1-(3-Trifluoromethyl-phenyl)-1H-pyrrol-3-yl]-benzoic acid]
> 300 °C	O=C(O)c1cccc(-c2ccn(-c3cccc(C(=O)O)c3)n2)c1 [Compound 69, 1,3-Bis(3-carboxyphenyl)-1H-pyrazole]
78 to 80 °C	N#Cc1cccc(-c2ccn(-c3ccccc3)n2)c1 [Compound 57, 3-(1-Phenyl-1H-pyrazol-3-yl)-benzonitrile]
260 to 262 °C	O=C(O)c1ccc(-n2cc(-c3ccccn3)cn2)cc1 [Compound 114, 4-(4-Pyridin-2-yl-pyrazol-1-yl)-benzoic acid]
194 to 196 °C	O=C(O)c1cccc(-c2cnn(-c3ccc(Cl)cc3)c2)n1 [Compound 54, 6-[1-(4-Chloro-phenyl)-1H-pyrazol-4-yl]-pyridine-2-carboxylic acid]
310 to 311 °C	CCOc1ccc(-c2cn(-c3ccc(C(=O)O)cc3)nn2)cc1 [Compound 273, 4-[4-(4-Ethoxy-phenyl)-[1,2,3]triazol-1-yl]-benzoic acid]
224 to 225 °C	CN(C)c1ccc(-c2cnn(-c3cccc(C(=O)O)c3)c2)cc1 [Compound 110, 3-[4-(4-Dimethylamino-phenyl)-pyrazol-1-yl]-benzoic acid]
211 to 213 °C	O=C(O)c1ccc(-c2ccn(-c3cccc(F)c3)c2)cc1 [Compound 152, 4-[1-(3-Fluoro-phenyl)-1H-pyrrol-3-yl]-benzoic acid]
